Experimental data taken from ChEMBL document CHEMBL5096184, “Structure activity relationship in β-carboline derived anti-malarial agents” (Eur J Med Chem, 2021).
Values after ≈ are worked out from the molar mass of the structure shown. Values joined by “and” are separate entries in the source; they are usually repeats but may differ in a detail not shown here. Equal entries are not always repeated.

Tests used:
Plasmodium falciparum [1] = assay: Antiplasmodial activity against chloroquine sensitive Plasmodium falciparum FCA 20/Ghana; format: functional, organism-based; conditions: Plasmodium falciparum, FCA 20/Ghana
Plasmodium falciparum [2] = assay: Antiplasmodial activity against chloroquine sensitive Plasmodium falciparum W2/Indochina; format: functional, organism-based
Plasmodium falciparum [3] = assay: Antiplasmodial activity against chloroquine sensitive Plasmodium falciparum FCB1-R/Colombia; format: functional, organism-based
[4] = Cytotoxicity against human MRC5 cells; format: toxicity, cell-based
Plasmodium = assay: Antimalarial activity against Plasmodium; format: functional, organism-based
Plasmodium falciparum [5] = assay: Antimalarial activity against Plasmodium falciparum W2; format: functional, organism-based
Plasmodium falciparum [6] = assay: Antimalarial activity against Plasmodium falciparum D6; format: functional, organism-based
[7] = Selectivity index, ratio of IC50 for rat L6 cells to IC50 for Plasmodium falciparum K1; format: toxicity; conditions: L6 cells versus Plasmodium falciparum K1, read-out: Ratio IC50
Trypanosoma cruzi = assay: Antitrypanosomal activity against Trypanosoma cruzi Tulahuen C2C4; format: functional, organism-based
Trypanosoma brucei = assay: Antitrypanosomal activity against Trypanosoma brucei rhodesiense STIB 900; format: functional, organism-based
Plasmodium falciparum [8] = assay: Antimalarial activity against Plasmodium falciparum K1; format: functional, organism-based
Leishmania donovani = assay: Antileishmanial activity against Leishmania donovani MHOM-ET-67/L82; format: functional, organism-based
[9] = Cytotoxicity against rat L6 cells assessed as reduction in cell viability; format: toxicity, cell-based
Plasmodium falciparum [10] = assay: Antiplasmodial activity against chloroquine sensitive Plasmodium falciparum K1; format: functional, organism-based
Plasmodium falciparum [11] = assay: Antiplasmodial activity against GHA chloroquine sensitive Plasmodium falciparum; format: functional, organism-based
Plasmodium falciparum [12] = assay: Antiplasmodial activity against chloroquine sensitive Plasmodium falciparum FCCI-HN assessed as decrease in parasitemia level incubated for 24 hrs by Giemsa staining method; format: functional, organism-based
Plasmodium falciparum [13] = assay: Antimalarial activity against Plasmodium falciparum NF54 assessed as delayed-death phenotype incubated 72 to 96 hrs by SYBR green staining method; format: functional, organism-based
Plasmodium falciparum [14] = assay: Antimalarial activity against Plasmodium falciparum; format: functional, organism-based
Plasmodium falciparum [15] = assay: Antimalarial activity against chloroquine sensitive Plasmodium falciparum FcM29-Cameroon in human RBC; format: functional, organism-based; conditions: Erythrocyte
Plasmodium falciparum [16] = assay: Antimalarial activity against Plasmodium falciparum incubated for 72 hrs by SYBR green I-based assay; format: functional, organism-based
[17] = Plasmodium falciparum, W2/Indochina

Q: With `C/C=C1\CN2CCc3c([nH]c4ccccc34)[C@@H]2C[C@@H]1Cc1nccc2c1[nH]c1ccccc12` as the compound, how does the IC50 (Plasmodium falciparum [1]) read?
A: 1.52 µM

Q: And the IC50 (Plasmodium falciparum [2]; [17])?
A: 0.594 µM

Q: And the IC50 (Plasmodium falciparum [3])?
A: < 2 µM

Q: Which IC50 [4] does the source give for `Cn1c2c(c3ccccc31)C[C@@H]1C(=O)N([C@@H]3CCN(Cc4ccccc4)C3)CC(=O)N1[C@@H]2c1ccc2c(c1)OCO2` here?
A: > 64 µM

Q: For `Oc1cccc2c1[nH]c1c(C3=C[C@@]4(O)CC/C=C\CCCCN5CC[C@@H]3[C@]3(C[C@@H]6/C=C\CCCCN6[C@H]34)C5)nccc12`, which IC50 (Plasmodium) is on record?
A: 0.0061 µg/mL (≈ 0.0108 µM)

Q: What about the IC50 (Plasmodium falciparum [5]) of the same compound?
A: 0.008 µg/mL (≈ 0.0142 µM)

Q: And the IC50 (Plasmodium falciparum [6])?
A: 0.006 µg/mL (≈ 0.0106 µM)

Q: Which IC50 (Plasmodium falciparum [6]) does the source give for `O[C@]12C=C[C@@H]3CCN(CCCCCCCC1)C[C@@]31C[C@@H]3CCCCCCN3[C@H]12` here?
A: 0.082 µg/mL (≈ 0.212 µM)

Q: With `C=C[C@H]1CN2CCc3c([nH]c4ccccc34)[C@@H]2C[C@@H]1CC1c2[nH]c3ccccc3c2CCN1C` (some centres undefined) as the compound, how does the IC50 (Plasmodium falciparum [1]) read?
A: 2.5 µM

Q: And the IC50 (Plasmodium falciparum [2]; [17])?
A: 2.36 µM

Q: What about the IC50 (Plasmodium falciparum [3]) of the same compound?
A: 2 µM

Q: What does the source list for `Brc1ccc2[nH]c3c[n+](Cc4cccc5ccccc45)ccc3c2c1`?
A: selectivity ratio [7]: 11; IC50 (Trypanosoma cruzi): 7.5 µM; IC50 (Trypanosoma brucei): 4.1 µM; IC50 (Plasmodium falciparum [8]): 0.481 µM; IC50 (Leishmania donovani): 17.7 µM; IC50 [9]: 5.1 µM

Q: Which IC50 (Plasmodium falciparum [6]) does the source give for `[O-][N+]12CCCC/C=C\[C@H]1C[C@]13C[N@@+]4([O-])CCCC/C=C\CC[C@](O)(C=C[C@@H]1CC4)[C@@H]32` (some centres undefined) here?
A: 0.017 µg/mL (≈ 0.041 µM)

Q: Which selectivity ratio [7] does the source give for `CCCc1cccc(-[n+]2ccc3c(c2)[nH]c2ccc(Br)cc23)c1` here?
A: 60

Q: What about the IC50 (Trypanosoma cruzi) of the same compound?
A: 12.6 µM

Q: And the IC50 (Trypanosoma brucei)?
A: 4.5 µM

Q: And the IC50 (Plasmodium falciparum [8])?
A: 0.459 µM

Q: What about the IC50 (Leishmania donovani) of the same compound?
A: 20.4 µM

Q: What about the IC50 [9] of the same compound?
A: 27.5 µM

Q: For `O[C@]12C=C[C@@H]3CCN(CCCC/C=C\CC1)C[C@@]31C[C@@H]3CCCCCCN3[C@H]12`, which IC50 (Plasmodium falciparum [6]) is on record?
A: 0.2 µg/mL (≈ 0.52 µM)

Q: For `CC(=O)OC1=CO[C@@H](O[C@@H]2O[C@H](CO)[C@@H](O)[C@H](O)[C@H]2O)[C@H]2[C@@H]1C[C@@]13O[C@@H]2CN1CCC1c2ccccc2NC13` (some centres undefined), which IC50 (Plasmodium falciparum [10]) is on record?
A: 6.77 µM

Q: Which results are given for `CC(C)(C)OC(=O)CC[C@@H]1NC(=O)[C@H]2Cc3c([nH]c4ccccc34)C(c3ccc4c(c3)OCO4)N2C1=O` (some centres undefined)?
A: IC50 (Plasmodium falciparum [11]): 60 µM; IC50 [4]: > 64 µM

Q: Which IC50 (Plasmodium falciparum [12]) does the source give for `C/C=C(/CO[C@@H]1O[C@H](CO)[C@@H](O)[C@H](O)[C@H]1O)c1cc2n(c(=O)c1CO)CCc1c-2[nH]c2ccccc12` here?
A: 9.7 µM

Q: Which IC50 (Plasmodium falciparum [11]) does the source give for `O=C1N[C@@H](COCc2ccccc2)C(=O)N2C(c3ccc4c(c3)OCO4)c3[nH]c4ccccc4c3C[C@H]12` (some centres undefined) here?
A: > 64 µM

Q: And the IC50 [4]?
A: > 64 µM

Q: Which IC50 (Plasmodium falciparum [10]) does the source give for `O=c1c(O[C@@H]2OC[C@](O)(CO[C@@H]3O[C@H](CO)[C@@H](O)[C@H](O)[C@H]3O)[C@H](O)[C@H]2O)cc2nccc3c4ccccc4n1c23` here?
A: 25 µM

Q: For `Brc1cccc2c1[nH]c1c[n+](Cc3cccc4ccccc34)ccc12`, which selectivity ratio [7] is on record?
A: 7

Q: And the IC50 (Trypanosoma cruzi)?
A: 7.9 µM

Q: And the IC50 (Trypanosoma brucei)?
A: 4.4 µM

Q: What about the IC50 (Plasmodium falciparum [8]) of the same compound?
A: 0.502 µM

Q: And the IC50 (Leishmania donovani)?
A: 46.4 µM

Q: What about the IC50 [9] of the same compound?
A: 3.7 µM

Q: Which IC50 (Plasmodium falciparum [11]) does the source give for `NCCCC[C@H]1NC(=O)[C@H]2Cc3c([nH]c4ccccc34)C(c3ccc4c(c3)OCO4)N2C1=O` (some centres undefined) here?
A: 4 µM

Q: And the IC50 [4]?
A: > 64 µM

Q: With `C/C=C1/COC(=O)c2c1cc1n(c2=O)CCc2c-1[nH]c1c(O[C@@H]3O[C@H](CO)[C@@H](O)[C@H](O)[C@H]3O)cccc21` as the compound, how does the IC50 (Plasmodium falciparum [12]) read?
A: 42.1 µM

Q: Which IC50 (Plasmodium falciparum [11]) does the source give for `O=C1N[C@@H](Cc2c[nH]c3ccccc23)C(=O)N2C(c3ccc4c(c3)OCO4)c3[nH]c4ccccc4c3C[C@H]12` (some centres undefined) here?
A: 25 µM

Q: And the IC50 [4]?
A: 35 µM

Q: For `C/C=C1\CN2CCc3c([nH]c4ccccc34)[C@@H]2C[C@@H]1CC1=NCCc2c1[nH]c1ccccc21`, which IC50 (Plasmodium falciparum [1]) is on record?
A: 0.857 µM

Q: What about the IC50 (Plasmodium falciparum [2]; [17]) of the same compound?
A: 0.032 µM

Q: What about the IC50 (Plasmodium falciparum [3]) of the same compound?
A: < 2 µM

Q: For `O=C(O)C1Cc2c([nH]c3ccccc23)C(c2ccc(Cl)cc2Cl)N1` (centres undefined), which IC50 (Plasmodium falciparum [13]) is on record?
A: 210 µM

Q: With `C[n+]1ccc2c(c1)[nH]c1ccc(Br)cc12` as the compound, how does the IC50 (Leishmania donovani) read?
A: > 223 µM

Q: Which IC50 (Plasmodium falciparum [14]) does the source give for `CC1(C)Cc2c([nH]c3ccccc23)C2(N1)C(=O)Nc1ccc(Cl)cc12` (racemic) here?
A: 0.0027 µM

Q: For `CC1C2=CN3CCc4c([nH]c5ccc(O)cc45)C3CC2CC2C3C(CCN2C)c2ccccc2N13` (stereo in doubt; 34), which IC50 (Plasmodium falciparum [1]) is on record?
A: 12.6 µM

Q: And the IC50 (Plasmodium falciparum [2])?
A: 4.57 µM

Q: And the IC50 (Plasmodium falciparum [3])?
A: 2 µM

Q: For `COC(=O)C1=CO[C@@H](C)[C@@H]2CN3CCc4c([nH]c5ccc(OC)cc45)[C@@H]3C[C@H]12` [ARICINE], which IC50 (Plasmodium falciparum [15]) is on record?
A: 0.3 µg/mL and 690 nM

Q: Which EC50 (Plasmodium falciparum [16]) does the source give for `COC(=O)[C@@H]1[C@H]2C[C@H]3c4[nH]c5ccccc5c4CCN3C[C@@H]2CC[C@@H]1O` [YOHIMBINE] here?
A: > 50 µM
